Results on 27 compounds are retold here after patent publication EP2970215B1, “PYRROLIDINE DERIVATIVES, PHARMACEUTICAL COMPOSITIONS CONTAINING THEM, AND THEIR USE IN THERAPY” (AbbVie Deutschland GmbH & Co. KG, priority 2013, dated 2014).

Structures are written as SMILES.

The target of the first test is T1, human GlyT1c transporter (Homo sapiens, UniProt P48067).
T1 construct: expressed in transfected cells; host or cells: CHO cells (recombinant; line hGlyT1c_5_CHO is named for the uptake assay)
T1 sequence (P48067 1-706): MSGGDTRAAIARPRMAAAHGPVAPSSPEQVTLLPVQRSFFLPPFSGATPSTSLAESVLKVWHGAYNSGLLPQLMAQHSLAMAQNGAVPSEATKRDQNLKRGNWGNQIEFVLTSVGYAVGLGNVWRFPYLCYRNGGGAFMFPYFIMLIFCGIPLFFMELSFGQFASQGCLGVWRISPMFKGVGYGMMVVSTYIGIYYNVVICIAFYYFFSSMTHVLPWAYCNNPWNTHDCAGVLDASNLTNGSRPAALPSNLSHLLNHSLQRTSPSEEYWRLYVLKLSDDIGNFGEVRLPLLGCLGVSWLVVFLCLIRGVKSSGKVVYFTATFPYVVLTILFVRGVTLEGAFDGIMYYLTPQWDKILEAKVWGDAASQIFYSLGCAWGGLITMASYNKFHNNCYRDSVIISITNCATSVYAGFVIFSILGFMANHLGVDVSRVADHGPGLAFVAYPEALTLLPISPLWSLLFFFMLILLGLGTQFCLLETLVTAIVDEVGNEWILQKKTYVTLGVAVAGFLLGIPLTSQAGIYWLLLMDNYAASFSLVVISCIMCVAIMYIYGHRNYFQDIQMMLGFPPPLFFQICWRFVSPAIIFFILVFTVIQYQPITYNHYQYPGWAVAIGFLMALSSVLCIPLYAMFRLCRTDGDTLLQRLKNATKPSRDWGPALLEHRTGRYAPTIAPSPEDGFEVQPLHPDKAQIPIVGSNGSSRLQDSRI
In words: Radioligand binding assay using recombinant CHO cell membranes expressing human GlyT1. Particulars: radioligand binding to human GlyT1c transporter-expressing membranes. From the text: 2. Radioligand binding assays using recombinant CHO cell membranes expressing human GlyT1: […]
On to `COCCCN[C@H]1CN(S(=O)(=O)c2cn(C)cn2)C[C@@H]1c1ccccc1` [Example 588, (3R,4S)-N-(3-methoxypropyl)-1-[(1-methyl-1H-imidazol-4-yl)sulfonyl]-4-phenylpyrrolidin-3-amine], for which the Ki (commonly the equilibrium dissociation constant of an inhibitor or competing ligand from its target) is at most 10 µM.
On the same count and under the same terms, the result for `Cc1ccccc1-c1cc(N[C@H]2CN(S(=O)(=O)c3cn(C)cn3)C[C@@H]2c2ccc(F)cc2)ncn1` [Example 723, N-{(3R,4S)-4-(4-fluorophenyl)-1-[(1-methyl-1H-imidazol-4-yl)sulfonyl]pyrrolidin-3-yl}-6-(2-methylphenyl)pyrimidin-4-amine] reads at most 0.1 µM; that for `Cn1cnc(S(=O)(=O)N2C[C@H](NCc3ccc(C(F)(F)F)cc3Cl)[C@@H](c3ccccc3)C2)c1` [Example 394, (3R,4S)-N-[2-chloro-4-(trifluoromethyl)benzyl]-1-[(1-methyl-1H-imidazol-4-yl)sulfonyl]-4-phenylpyrrolidin-3-amine], at most 0.01 µM; that for `Cn1cnc(S(=O)(=O)N2CC(Cc3ccccc3Br)C(c3ccccc3Br)C2)c1` (stereo not drawn) [Example 205, 4-{[3-(2-bromobenzyl)-4-(2-bromophenyl)pyrrolidin-1-yl]sulfonyl}-1-methyl-1H-imidazole], at most 1 µM.
The same measure, in the same setting: the result for `Cn1cnc(S(=O)(=O)N2C[C@H](NCc3ccc(C(F)(F)F)o3)[C@@H](c3ccc(F)cc3)C2)c1` [Example 391, (3R,4S)-4-(4-fluorophenyl)-1-[(1-methyl-1H-imidazol-4-yl)sulfonyl]-N-{[5-(trifluoromethyl)furan-2-yl]methyl}pyrrolidin-3-amine] reads at most 0.1 µM; that for `CCCCCCO[C@H]1CN(S(=O)(=O)c2cn(C)cn2)C[C@@H]1c1ccc(F)cc1` [Example 625, 4-{[(3S,4R)-3-(4-fluorophenyl)-4-(hexyloxy)pyrrolidin-1-yl]sulfonyl}-1-methyl-1H-imidazole], at most 0.01 µM.
The same measure, in the same setting: the value for `O=c1[nH]c(=O)c2cc(S(=O)(=O)N3CC(Nc4ccc(F)c(F)c4)C(c4ccccc4)C3)ccc2[nH]1` (stereo not drawn) [Example 480, 6-({3-[(3,4-difluorophenyl)amino]-4-phenylpyrrolidin-1-yl}sulfonyl)quinazoline-2,4(1H,3H)-dione] was above 10 µM; that for `Cn1cnc(S(=O)(=O)N2C[C@H](Nc3cccc(OCC(F)(F)F)c3)[C@@H](c3ccc(F)cc3)C2)c1` [Example 744, (3R,4S)-4-(4-fluorophenyl)-1-[(1-methyl-1H-imidazol-4-yl)sulfonyl]-N-[3-(2,2,2-trifluoroethoxy)phenyl]pyrrolidin-3-amine] was at most 0.01 µM; that for `Cn1cnc(S(=O)(=O)N2C[C@@H](COc3cccc(F)c3)[C@H](c3ccc(F)cc3)C2)c1` (relative stereo) [Example 251, 4-{[trans-3-[(3-fluorophenoxy)methyl]-4-(4-fluorophenyl)pyrrolidin-1-yl]sulfonyl}-1-methyl-1H-imidazole] was at most 0.1 µM.
Regarding `Cn1cnc(S(=O)(=O)N2C[C@H](c3ccccc3)[C@H](NCc3ccccc3)C2)c1` (relative stereo) [Example 157, (cis)-N-benzyl-1-[(1-methyl-1H-imidazol-4-yl)sulfonyl]-4-phenylpyrrolidin-3-amine], the Ki is at most 10 µM.
For the compound `Cn1cnc(S(=O)(=O)N2C[C@@H](Nc3ccc(F)c(F)c3F)[C@H](c3ccccc3)C2)c1` (relative stereo) [Example 234, trans-1-[(1-methyl-1H-imidazol-4-yl)sulfonyl]-4-phenyl-N-(2,3,4-trifluorophenyl)pyrrolidin-3-amine], the Ki was at most 1 µM.
Still for that read-out and setting: the value for `Cn1cnc(S(=O)(=O)N2C[C@@H](NCc3ccccc3Cl)[C@H](c3ccc(F)cc3)C2)c1` (relative stereo) [Example 260, trans-N-(2-chlorobenzyl)-4-(4-fluorophenyl)-1-[(1-methyl-1H-imidazol-4-yl)sulfonyl]pyrrolidin-3-amine] was at most 0.1 µM; that for `Cn1cnc(S(=O)(=O)N2C[C@@H](Nc3ccncc3)[C@H](c3ccc(F)cc3)C2)c1` (relative stereo) [Example 177, N-{trans-4-(4-fluorophenyl)-1-[(1-methyl-1H-imidazol-4-yl)sulfonyl]pyrrolidin-3-yl}pyridin-4-amine] was at most 10 µM.
As to `CCC(CCCN[C@H]1CN(S(=O)(=O)c2cn(C)cn2)C[C@@H]1c1ccccc1)OC` (stereo partly drawn) [Example 648, (3R,4S)-N-(4-methoxyhexyl)-1-[(1-methyl-1H-imidazol-4-yl)sulfonyl]-4-phenylpyrrolidin-3-amine], the Ki was at most 10 µM.
On the same count and under the same terms, the result for `Cn1cnc(S(=O)(=O)N2C[C@@H](Nc3ccnc(C(F)(F)F)c3)[C@H](c3ccccc3F)C2)c1` (relative stereo) [Example 204, N-{trans-4-(2-fluorophenyl)-1-[(1-methyl-1H-imidazol-4-yl)sulfonyl]pyrrolidin-3-yl}-2-(trifluoromethyl)pyridin-4-amine] reads at most 0.1 µM; that for `Cn1cnc(S(=O)(=O)N2C[C@@H](Nc3cccc(C(F)(F)F)n3)[C@H](c3ccc(F)cc3)C2)c1` (relative stereo) [Example 180, N-{trans-4-(4-fluorophenyl)-1-[(1-methyl-1H-imidazol-4-yl)sulfonyl]pyrrolidin-3-yl}-6-(trifluoromethyl)pyridin-2-amine], at most 1 µM.
Same read-out and setting: the value for `Cn1cnc(S(=O)(=O)N2C[C@@H](NCc3cccc(C(F)(F)F)c3Cl)[C@H](c3ccc(F)cc3)C2)c1` (relative stereo) [Example 149, trans-N-[2-chloro-3-(trifluoromethyl)benzyl]-4-(4-fluorophenyl)-1-[(1-methyl-1H-imidazol-4-yl)sulfonyl]pyrrolidin-3-amine] was at most 0.1 µM; that for `Cn1cnc(S(=O)(=O)N2C[C@H](NCC3CCOC3)[C@@H](c3ccccc3)C2)c1` (stereo partly drawn) [Example 447, (3R,4S)-1-[(1-methyl-1H-imidazol-4-yl)sulfonyl]-4-phenyl-N-(tetrahydrofuran-3-ylmethyl)pyrrolidin-3-amine] was at most 10 µM; that for `COc1ccc([C@@H]2CN(S(=O)(=O)c3cn(C)cn3)C[C@H]2NC(=O)c2cccc(C(F)(F)F)c2Cl)cc1` (relative stereo) [Example 2, 2-chloro-N-{trans-4-(4-methoxyphenyl)-1-[(1-methyl-1H-imidazol-4-yl)sulfonyl]pyrrolidin-3-yl}-3-(trifluoromethyl)benzamide] was at most 1 µM.
Still for that read-out and setting: the value for `Cn1cnc(S(=O)(=O)N2C[C@@H](Nc3ccncc3)[C@H](c3ccccc3)C2)c1` (relative stereo) [Example 209, N-{trans-1-[(1-methyl-1H-imidazol-4-yl)sulfonyl]-4-phenylpyrrolidin-3-yl}pyridin-4-amine] was at most 10 µM; that for `CC(C)(C)OC(=O)N[C@@H]1CN(S(=O)(=O)c2ccccc2C#N)C[C@H]1c1ccccc1` (relative stereo) [Example 523, tert-butyl {trans-1-[(2-cyanophenyl)sulfonyl]-4-phenylpyrrolidin-3-yl}carbamate] was at most 10 µM.
As to `Cn1cnc(S(=O)(=O)N2C[C@@H](Nc3cc(C#N)ccc3F)[C@H](c3ccccc3)C2)c1` (relative stereo) [Example 76, 4-fluoro-3-({trans-1-[(1-methyl-1H-imidazol-4-yl)sulfonyl]-4-phenylpyrrolidin-3-yl}amino)benzonitrile], the inhibitory constant (Ki) was at most 10 µM.
Still for that read-out and setting: the value for `Cc1nc(S(=O)(=O)N2C[C@H](Nc3cc(C(F)(F)F)c(Cl)cn3)[C@@H](c3ccc(F)cc3)C2)cn1C` [Example 760, 5-chloro-N-[(3R,4S)-1-[(1,2-dimethyl-1H-imidazol-4-yl)sulfonyl]-4-(4-fluorophenyl)pyrrolidin-3-yl]-4-(trifluoromethyl)pyridin-2-amine] was above 10 µM.
On to `CC(CN[C@H]1CN(S(=O)(=O)c2cn(C)cn2)C[C@@H]1c1ccccc1)C(F)(F)F` (stereo partly drawn) [Example 566, (3R,4S)-1-[(1-methyl-1H-imidazol-4-yl)sulfonyl]-4-phenyl-N-(3,3,3-trifluoro-2-methylpropyl)pyrrolidin-3-amine], for which the Ki is at most 10 µM.
As to `O=S(=O)(c1ccc2c(c1)CCO2)N1CC(Nc2ccc(F)c(F)c2)C(c2ccccc2)C1` (stereo not drawn) [Example 519, N-(3,4-difluorophenyl)-1-(2,3-dihydro-1-benzofuran-5-ylsulfonyl)-4-phenylpyrrolidin-3-amine], the Ki was above 10 µM.
In the case of `Cn1cnc(S(=O)(=O)N2C[C@H](NCCO[Si](C)(C)C(C)(C)C)[C@@H](c3ccccc3)C2)c1` [Example 551, (3R,4S)-N-(2-{[tert-butyl(dimethyl)silyl]oxy}ethyl)-1-[(1-methyl-1H-imidazol-4-yl)sulfonyl]-4-phenylpyrrolidin-3-amine], the Ki is at most 10 µM.

The test is the same for the next values; noted with them: radioligand binding, recombinant CHO cell membranes expressing human GlyT1c.
With `Cn1cc(S(=O)(=O)N2C[C@H](Nc3ccc(F)c(Cl)c3)[C@@H](c3ccc(F)cc3)C2)nn1` [Example 842, (3R,4S)-N-(3-chloro-4-fluorophenyl)-4-(4-fluorophenyl)-1-[(1-methyl-1H-1,2,3-triazol-4-yl)sulfonyl]pyrrolidin-3-amine], the Ki is at most 0.01 µM.
